According to PMC5688144, “Assay interference and off-target liabilities of reported histone acetyltransferase inhibitors” (Nature Communications, 2017):
“Also recorded” adds a separate entry of the source. Values belong to the molecule of their own block, whether it stands above or below them.

Legend:
AmpC β-lactamase = target: T1, AmpC β-lactamase (Escherichia coli, UniProt P00811); test: biochemical; design: species or system E. coli; settings: 10 μM compound; for AmpC aggregation counter-screen: ± 0.01% Triton X-100
T1 construct: Recombinant E. coli AmpC (amino acids 20–377); purchased MyBioSource.com
Method: Selected compounds were assessed for aggregation using a modified AmpC β-lactamase counter-screen[24],[32],[64]. Recombinant E. coli AmpC (amino acids 20–377) was obtained from MyBioSource.com. Testing was performed in ALARM NMR buffer (25 mM sodium phosphate, pH 7.0) in flat-bottom UV-transparent 96-well microplates in 150 μL reaction volumes. Compounds were tested in triplicate at 10 μM final concentrations in either the presence or absence of freshly-prepared 0.01% Triton X-100 (v/v). Final concentration of DMSO was 2.0% (v/v). Compounds were incubated with ~5 nM AmpC in 147 μL reaction buffer for 5 min at RT, followed by the addition of 3 μL of nitrocefin substrate (100 μM final concentration). Reaction solutions were gently mixed by pipetting up and down three times using a multichannel pipette. […] Percent activity was normalized to DMSO-only controls. Fluconazole and lidocaine were included as negative aggregation control compounds. Rottlerin was included as a positive aggregation control compound. Aggregators were defined as compounds with significant detergent-dependent changes in AmpC activity (t-test, adjusted P-value <0.05; mean differences greater than 30%). Activators were defined as compounds that increased AmpC enzymatic activity.

p300/CBP = settings: cited from earlier work
[1] = test system: caspase 3/7 activity in HEK293T and MCF7 cells; test: Live-cell caspase 3/7 activity; type: cell-based; settings: 24 h after compound addition
Method: (§1) For cell growth analyses, cells were seeded in 96-well plates, treated with compounds for the indicated times, and monitored over time in a live cell Incucyte™ ZOOM imager (Essen Biosciences). To label apoptotic and dead cells, caspase 3/7 activatable DEVD recognition motif NucView™ 488 DNA intercalating dye (1:1000 dilution, Essen Biosciences) and SYTOX™ green nucleic acid stain (1:1000 dilution, Invitrogen) were used respectively, following manufacturer instructions.

HEK293T and MCF7 cells [2] = test: Membrane permeability (SYTOX green uptake); type: cell-based; settings: for membrane permeability: Sytox green dead-cell dye uptake
Method: as §1

human La antigen = target: T2, human La antigen (Homo sapiens, UniProt P05455, T302N); test: ALARM NMR; type: binding; settings: 400 μM compound
T2 construct: amino acids 100–324 of the human La antigen (plus T302N mutation); 6xHis (N); 6xHis (C); host or cells: Escherichia coli Rosetta cells
T2 sequence (P05455 100-324 T302N): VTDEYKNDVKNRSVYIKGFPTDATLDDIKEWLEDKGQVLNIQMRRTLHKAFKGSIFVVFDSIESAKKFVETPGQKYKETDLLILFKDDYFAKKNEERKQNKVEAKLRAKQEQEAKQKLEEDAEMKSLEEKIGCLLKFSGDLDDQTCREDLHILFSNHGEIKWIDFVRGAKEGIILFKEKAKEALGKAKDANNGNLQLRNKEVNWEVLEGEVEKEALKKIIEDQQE
Source text: The gene encoding amino acids 100–324 of the human La antigen (plus T302N mutation) was cloned into pET28b + vector (Novagen) with both an N- and C-terminal 6xHis tag (addgene.org, plasmid ID 90209). The sequence identity of the ALARM NMR plasmid construct was verified by Sanger sequencing of the transgene region and next-generation sequencing of the whole plasmid.
Plasmid was transformed into Escherichia coli Rosetta cells (Novagen) and cultured in M9 minimal media. The La antigen was labeled by adding ^13C-labeled amino acid precursors ([3-^13C]-α-ketobutyrate and [3,3′-^13C]-α-ketoisovalerate sodium salts; Cambridge Isotope Laboratories; 250 mg L^−1 final concentrations) to culture medium 30 min before induction with IPTG (1 mM final concentration). Bacteria were collected after incubation at 25 °C for 8 h and washed with ice-cold phosphate-buffered saline (PBS). Washed cells were lysed by French press in ice-cold lysis buffer (50 mM Tris, pH 7.6, 300 mM NaCl, 10% glycerol (v/v), 5 mM β-mercaptoethanol (BME), 5 mM imidazole, 2 mM MgCl2, benzonase, and protease inhibitor cocktail), followed by an additional brief sonication step (3 × 15 s pulse sequence) on ice. This lysed solution was centrifuged (30,000×g for 30 min, two cycles) to remove cellular debris, then loaded onto a pre-washed Ni-NTA bead column (Qiagen) kept at 4 °C and washed with buffer (50 mM Tris, pH 7.6, 300 mM NaCl, 10% glycerol (v/v), 5 mM BME, 5 mM imidazole). The La antigen was eluted with an elution buffer (50 mM Tris, pH 7.6, 300 mM NaCl, 10% glycerol (v/v), 5 mM BME, imidazole gradient ranging from 5 mM to 0.5 M). […] Aliquots were flash-frozen in liquid N2 and stored at −80 °C until further use. Before use, aliquots of ~150 μM protein were incubated in the presence of 20 mM DTT at 37 °C for 1 h, then dialyzed (25 mM sodium phosphate buffer, pH 7.0 (no DTT)) in 16 h cycles at 4 °C with constant nitrogen bubbling and with gentle stirring, for three total buffer cycles.
For standard testing conditions, the [^1H-^13C]-HMQC spectra were acquired in 25 mM sodium phosphate buffer, pH 7.0, 10% D2O (v/v; CIL) ± 400 μM test compounds delivered from the aforementioned stock solutions, and ± 20 mM non-deuterated DTT. Final concentration of DMSO was 4.0% (v/v). Reaction solutions were mixed, then centrifuged for 5 min (1000×g) in non-binding 384-well microplates at RT, then incubated at 37 °C for 1 h and then 30 °C for 15 h before obtaining spectra. Samples were checked for evidence of gross precipitation. Data were recorded at 298 K on a Bruker UltraShield 700 MHz NMR spectrometer equipped with a Bruker 1.7 mm TCI Cryoprobe and Bruker SampleJet autosampler. Samples were tested at 50 μM protein concentrations using 16 scans, 2048 complex points in F2, and 80 points in F1 using standard protein [^1H-^13C]-HMQC and water suppression pulse sequences.
Data were analyzed in TopSpin™ 3.5 (Bruker). Reactions were normalized to equivalent DMSO controls. Non-reactive compounds were identified by the absence of chemical shifts or changes in peak intensities (^13C-methyl) ± 20 mM DTT.

Absorbance spectra = type: physicochemical; settings: 25 mM sodium phosphate, pH 7.0
Method: Selected test compounds were assessed for absorption between 300 and 750 nm. Most compound absorption spectra were obtained at 100, 50, and 10 μM final compound concentrations in ALARM NMR buffer (25 mM sodium phosphate, pH 7.0). Final concentration of DMSO was constant at 2.0% (v/v). Compounds were allowed to incubate at RT in buffer for 10 min in UV-transparent polystyrene 384-well plates. Absorbance spectra were then obtained on a SpectraMax M3 or BMG Labtech CLARIOstar microplate reader at 25 °C. Significant absorbance was defined as molar absorptivity constants greater than 2000 M^−1 cm^−1 at wavelengths greater than 300 nm.

[3] = Autofluorescence counter-screen; type: physicochemical; settings: autofluorescence at eight fluorophore settings; 32 nM-100 μM compound
Method: Selected test compounds were assessed for autofluorescence using an adaption of published procedures. […] Final concentration of DMSO was constant at 1.0% (v/v). Compounds and fluorophore standards were transferred as 10 mM DMSO stock solutions to 384-well black polystyrene microplates via Echo 550 dispenser. The plate arrangement was purposefully designed to minimize optical crosstalk by fluorophore standards. All measurements were performed in ALARM NMR buffer (25 mM sodium phosphate, pH 7.0) at 25 °C. Aliquots of 20 μL buffer were dispensed into microplate wells via ThermoFisher Multidrop dispenser. Compounds were shaken for 1 min on a plate shaker, centrifuged briefly for 1 min at 1000×g, then allowed to incubate at RT in buffer for 10 min before measuring fluorescence intensity on a SpectraMax M3 plate reader under reduced lighting. […] Bandwidth filters were set to default mode. Fluorescence intensity was measured for each test compound using each of the eight fluorophore standard settings. Fluorophores present on each plate were then used to construct normalized fluorescence dose-responses (“fluorophore-equivalent concentrations”, FEC). Fluorescence intensity for each test compound was converted to the appropriate FEC.

[4] = Fluorescence quenching counter-screen; type: physicochemical; settings: 10 μM fluorophore; 32 nM-100 μM compound
Method: Selected test compounds were assessed for fluorescence quenching using adaptions of previously published procedures[9],[24]. Briefly, test compounds and individual fluorophore standards were incubated together. The fluorescence intensity of these mixtures was compared to the fluorescence intensity of the same fluorophore standards minus test compounds. Each microplate contained positive control columns (DMSO plus fixed concentration of a single fluorophore), negative control columns (DMSO), and experimental wells (test compounds plus fixed concentration of a single fluorophore). […] Final concentration of DMSO was constant at 2.0% (v/v). […] All measurements were performed in ALARM NMR buffer (25 mM sodium phosphate, pH 7.0) at 25 °C. Aliquots of 20 μL buffer were dispensed into microplate wells via ThermoFisher Multidrop dispenser. Microplates were shaken for 1 min on a plate shaker, centrifuged briefly for 1 min at 1000×g, then allowed to incubate at RT for 10 min before measuring fluorescence intensity on a SpectraMax M3 plate reader under reduced lighting. Instrument settings for each fluorophore were unchanged from the aforementioned autofluorescence studies.

HEK293T and MCF7 cells [5] = test: Cell proliferation by cell confluence; type: cell-based; settings: 10 and 30 μM compound, 24 h
Method: (§2) Cells were cultured in DMEM supplemented with 10% fetal bovine serum (Winsent), penicillin (100 U mL^−1), and streptomycin (100 µg mL^−1). Compounds dissolved in DMSO or matching DMSO-only controls were added to cells for indicated times. Compound effects in cells were determined as described[67] and are outlined below.
as §1

[6] = test system: H3K27ac levels in HEK293T and MCF7 cells; test: Cellular H3K27ac western blot; type: cell-based; settings: 10 and 30 μM compound
Method: as §2
For western blot analyses, cells were lysed in lysis buffer (20 mM Tris–HCl, pH 8, 150 mM NaCl, 1 mM EDTA, 10 mM MgCl2, 0.5% Triton X-100 (v/v), 12.5 U mL^−1 benzonase (Sigma), complete EDTA-free protease inhibitor cocktail (Roche)). After 3 min incubation at RT, SDS was added to final 1% concentration (w/v). Total cell lysates were resolved in 4–12% Bis-Tris protein gels (Invitrogen) with MOPS buffer (Invitrogen) and transferred for 1.5 h (80 V) onto PVDF membrane (Millipore) in tris-glycine transfer buffer containing 20% methanol and 0.05% SDS. Blots were blocked for 1 h in blocking buffer (5% milk in 0.1% Tween 20/PBS) and incubated with respective primary antibodies: H3K27ac (1:1000, CST #8173), H3 (1:1000, Abcam #10799), p300 (1:2000, Bethyl #A300-358A), CBP (1:1000, Bethyl #A300-362A), actin (1:3000, Abcam #3280), α-tubulin (1:1000, 12G10 DHSB), and α-tubulin-K40ac (1:2000, Abcam #179484) in blocking buffer overnight at 4 °C. After five washes with 0.1% Tween 20/PBS, the blots were incubated with goat anti-rabbit IgG (IRDye 800-conjugated, LiCor #926-32211) and donkey anti-mouse IgG (IRDye 680-conjugated, LiCor #926-68072) antibodies (1:5000) in Odyssey Blocking Buffer (LiCor) for 1 h at RT and washed with 0.1% Tween 20/PBS. The signal was read on an Odyssey scanner (LiCor) at 800 and 700 nm. Representative uncropped images with molecular weight markers are provided (Supplementary Figs. 9, 12, 13).

SMILES: c1cc(SSc2ccns2)sn1 [Compound 2, NU-9056]
AmpC aggregation counter-screen (AmpC β-lactamase): Detergent-insensitive | IC50 (p300/CBP; original report, 27 (Supplementary References)): 59 µM

SMILES: CCCCCCCCCCCCCCC=C(C(=O)OCC)C(=O)OCC [Compound 19, LoCAM]
ALARM NMR, (-) DTT (human La antigen; 0 mM DTT): Negative | ALARM NMR, (+) DTT (human La antigen; DTT present): Negative | ALARM NMR interpretation (human La antigen; with and without DTT): Inert as tested | AmpC counter-screen result (AmpC β-lactamase; detergent-sensitive modulation): likely aggregators | AmpC aggregation counter-screen (AmpC β-lactamase): Detergent-sensitive (Aggregators were defined as compounds with significant detergent-dependent changes in AmpC activity (t-test, adjusted P-value <0.05; mean differences greater than 30%)) | Absorption max (nm) (Absorbance spectra): Nominal | Absorbance counter-screen (Absorbance spectra; 300-750 nm): Negative | Fluorescence counter-screen [3]: Negative | Quenching counter-screen [4]: Negative | % inhibition, p300/CBP (p300/CBP; @ 50 µM, ref 23 (Supplementary References)): 74%

SMILES: CC(=O)c1c(O)c(C)c(O)c(Cc2c(O)c3c(c(C(=O)/C=C/c4ccccc4)c2O)OC(C)(C)C=C3)c1O [Rottlerin]
effect on cell proliferation (cell confluence) (HEK293T and MCF7 cells [5]): cytotoxic effects | effect on cell proliferation (cell confluence) (HEK293T and MCF7 cells [5]; listed as rottlerin): anti-proliferative effects | cellular H3K27ac levels [6]: decreased H3K27ac levels

SMILES: O=[N+]([O-])c1cc(Br)c2nsnc2c1Sc1ncnc2[nH]cnc12 [Compound 26, JMC2015-2a]
caspase 3/7 activity [1]: induce; also recorded: increased | membrane permeability (HEK293T and MCF7 cells [2]): increased

The next lines start with results.

caspase 3/7 activity [1]: induce; also recorded: increased
SMILES: O=C(O)CCSc1cc(NS(=O)(=O)c2ccc(Br)cc2)c2ccccc2c1O [Compound 24, JMC2015-6a]
cytotoxicity by membrane integrity studies (HEK293T and MCF7 cells [2]; 30 µM compound, MCF7 cells): cytotoxic | membrane permeability (HEK293T and MCF7 cells [2]): increased

caspase 3/7 activity [1]: induce; also recorded: increased
SMILES: O=C1C(Cl)=C(NCCN2CCOCC2)C(=O)c2ncccc21 [NSC-663284]
cellular H3K27ac levels [6]: decreased H3K27ac levels | membrane permeability (HEK293T and MCF7 cells [2]): increased
